The record followed here is US20210230101A1, “COMPOUNDS FOR TREATING DENGUE VIRUS INFECTIONS AND OTHER INFECTIONS” (Dana-Farber Cancer Institute, Inc., priority 2018, published 2021).

In general, IC50 refers to the concentration at which inhibition is half-maximal. What is called EC50 is the concentration giving half of the maximal effect. A word on the half-life: it is how long it takes for the measured level to halve. Low readings indicate fast loss, high ones slow loss. By IC90 is commonly meant the concentration needed for an effect of 90%. Read a low IC90 as an effect from little substance. In general, Vd refers to a proportionality between amount in the body and measured concentration, not a real space. Usually clearance stands for a measure of how efficiently the substance is removed, as volume per time.

In data set [1] the target is His6-tagged DENV2 sE2 (Dengue virus type 2, UniProt P14340). Description: AlphaScreen competition assay (GNF2-biotin probe vs. envelope protein). The data set is classed as binding, Dengue virus 2 (DENV2). An excerpt: Known DENV inhibitors to develop an AlphaScreen assay designed to identify compounds that compete for binding on envelop protein. The AlphaScreen is a bead-based proximity assay that permits measurement of biomolecular interactions of pico- to milli-molar affinities in microplate format. Following excitation of donor beads, energy is transferred to acceptor beads if analytes conjugated to donor and acceptor beads interact. […] We performed cross-titration experiments to optimize the molar concentrations of the probe (GNF2-biotin) and envelope glycoprotein for the assay. We also tested different orders of the addition of the assay components to achieve the best signal-to-noise ratio.

Data set [2] relates to DENV. Kind of data set: PRNT plaque reduction assay. Conditions: Dengue virus; plaque reduction by 50%; virus not given. The data set is classed as cell-based. Here is the method:
For plaque reduction assays, DENV1, 2, 3, 4 were tested on BHK-21 cells, and ZIKV was tested on Vero cells. Vims inocula were diluted in EBSS to 2500 pfu/ml as the final concentration, and were pre-incubated with different concentrations of small molecule inhibitors (2% DMSO vol/vol final concentration) for 45 min at 37° C., 5% CO2. The mixture (200 μl, 500 pfu of virus) was then added to cells for 1 hour (37° C., 5% CO2) to allow infection, after which the inoculum was removed, and the cells were washed with 1×PBS to remove unbound virus and compound. Cells were overlaid with carboxylmethylcellulose and incubated at 37° C., 5% CO2 to allow the formation of plaques (4 days for DENV1, 2, 3, 4 and 2-3 days for ZIKV). The cells were fixed and plaques visualized by staining of the cell monolayers with crystal violet. Empirical analysis was performed to determine the PRNT50 value, defined as the inhibitor concentration needed to reduce plaque formation by 50%.
For orientation: In a plaque reduction assay, fewer plaques than in the control indicate reduced infectivity or spread.

Data set [3] is described as follows: Cytotoxicity (CellTiter-Glo). The data set is classed as cell-based. Particulars: hamster, BHK21 cells, read-out: CC50/μM (toxicity). Here is the method: The term “CC50” refers to the concentration of an antiviral agent that causes 50% loss of cell viability.
BHK21 cells (MEM with 2% FBS) were incubated with varying concentrations of inhibitor in a 96-well white plate for 24 hours at 37 degrees C. and 5% CO2. CellTiter-Glo (Promega) solution was used to measure viability following the manufacturer's instructions. Luminescence was measured using a Biotek Synergy plate reader. Data were plotted versus the log10 inhibitor concentration, and non-linear regression analysis (Graphpad Prism) was used to determine CC50 values, defined as the inhibitor concentration required to cause 50% loss of cell viability. The maximum concentration tested was 100 μM. Values presented in Table 1 are the average of two or more independent experiments.
(In general: ATP-based viability assays read luminescence as a measure of living cells.)

The target in data set [4] is T1, AmpC β-lactamase (Escherichia coli, UniProt P00811).
T1 construct: Shoichet lab (UCSF), gift
T1 sequence (P00811 20-377): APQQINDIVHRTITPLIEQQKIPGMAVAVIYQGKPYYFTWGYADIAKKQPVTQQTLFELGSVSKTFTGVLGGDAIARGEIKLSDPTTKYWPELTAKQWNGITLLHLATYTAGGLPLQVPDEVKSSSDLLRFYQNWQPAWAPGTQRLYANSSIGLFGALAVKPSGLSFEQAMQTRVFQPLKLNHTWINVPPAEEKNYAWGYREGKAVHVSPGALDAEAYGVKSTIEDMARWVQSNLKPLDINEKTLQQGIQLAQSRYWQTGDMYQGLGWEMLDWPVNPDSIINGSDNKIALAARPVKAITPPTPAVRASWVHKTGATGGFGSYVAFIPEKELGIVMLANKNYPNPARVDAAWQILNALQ
Description: AmpC beta-lactamase non-specific enzyme inhibition assay. The data set is classed as biochemical. Conditions: IC50/μM vs. AmpC. Here is the method:
AmpC beta-lactamase assay. The AmpC β-lactamase was a kind gift from the Shoichet lab (UCSF). The inhibitor was serially diluted (two-fold dilution series from 100 μM) and pre-incubated with 10 nM enzyme in working buffer (50 mM potassium phosphate, pH 7.0) at room temperature for 5 min. Nitrocefin (100 μM, VWR) was added to the solution and carefully mixed. Absorbance of the final mixture was immediately monitored at 470 nm for 3 min.
For both AmpC and MDH assays, the final concentration of DMSO was 2% for all samples. All assays were repeated in the presence of 0.01% Triton X-100. IC50 values of 3-110-22 presented in Table 2 are representative data from two independent experiments; values for the other lead compounds were measured once for each enzymatic assay.

Data set [5] concerns VSV-eGFP. Description: VSV-eGFP counter screen. The data set is classed as cell-based. (The purpose of a counterscreen is to sort out artefacts and off-target activity.)
Data set [6] in a line: Pharmacokinetic (PK) studies. Conditions: mouse, in vivo. Here is the method: FIG. 3. Pharmacokinetic (PK) data for S4105. The compound has a volume of distribution of 0.06 L/kg, which is essentially the blood volume of a mouse, implying that the compound may be sequestered in the plasma. […] The intraperitoneal (IP) dose was well absorbed. 8 hours after the IP dose of 20 mg/kg the plasma concentration for the three mice ranged from 75-200 μM. Even if the compound is 99.95% plasma protein bound, this would still give a free fraction of about 50 nM.
FIG. 4. PK data for ZNL-01-132. The compound has a long half-life in plasma of 5-6 hours. After IP dosing at 20 mg/kg high concentrations were achieved and 8 hours post dose the levels were approximately 2 μM.
PK studies were performed on compounds S4105 and ZNL-01-132.

The subject of data set [7] is DENV. Kind of data set: Antiviral activity: viral infectivity assay (single-cycle viral yield). Type of data set: cell-based. Conditions: Dengue virus; concentration that reduces single-cycle viral yield by 10-fold. Here is the method: The term “IC90” refers to the concentration of an antiviral agent that reduces single-cycle viral yield by 10-fold.
For the viral infectivity assay, virus inocula were diluted in EBSS to achieve a multiplicity of infection (MOI) of 1, and were pre-incubated with the given small molecule at varying concentrations for 45 min at 37° C. The mixture was then added to cells for 1 hour at 37° C. to allow infection, after which the inoculum was removed and the cells were washed with 1×PBS to remove unbound virus and compound. Cells were overlaid with medium lacking inhibitor and incubated at 37° C. for 20-24 hours, corresponding to a single cycle of infection. Culture supernatants were harvested at this time, and the yield of infectious particles produced was quantified by plaque-forming assay. For initial antiviral screening of HTS “hits,” compounds were tested for activity at 3 and 10 μM. For IC90 value determination, viral yield (plaque-forming units per milliliter) was plotted versus the log of the inhibitor concentration, and non-linear regression analysis of the data (Graphpad Prism) was performed to determine the concentration at which viral yield is reduced 10-fold.

The mark [8] stands for this setting: TX, in the presence of 0.01% Triton X-100.

Like-named read-outs stand apart in the source and are kept apart here. Some results are limits rather than exact numbers.

Take `O=C(Nc1ccc(Oc2ccc(Cl)cc2)c(Cl)c1)c1cc(I)cc(I)c1O`: the IC50 in data set [1] turned out to be 0.8 µM.
`O=C(Nc1ccc(Oc2ccc(Cl)cc2)c(Cl)c1)c1cc(F)cc(F)c1O` [ZNL-01-132]: the IC50 is 4 µM in data set [1]; 38 µM in data set [4] (No TX, without Triton X-100); more than 100 µM in data set [4] (setting [8]). In data set [2], this compound displayed an EC50 of 0.5 µM. The CC50 at 24 h in data set [3] was found to be 44 µM. The “% Inhibition Vs. VSV-eGFP, 2.5 μM” value in data set [5] (2.5 μM) is listed as 80%. Besides, the “% Inhibition Vs. VSV-eGFP, 5 μM” value in data set [5] (5 μM) is more than 90%. Besides, the half-life in data set [6] is 5 to 6 h. In addition, in data set [6] (IP 20 mg/kg, 8 hours post dose, read-out: plasma concentration 8 hours after IP dose), the concentration at 8 h is approximately 2 µM.
In data set [1], `Cc1cc(C(C#N)c2ccc(Cl)cc2)c(Cl)cc1NC(=O)c1ccccc1O` (stereo not drawn) registered a half-inhibitory concentration (IC50) of 2 µM. In data set [7], this compound returned an IC90 of 8 µM.
`Cc1cc(C(C#N)c2ccc(Cl)cc2)c(Cl)cc1NC(=O)c1cc(I)cc(I)c1O` (stereo not drawn) [drawing 87] had a concentration for half-maximal inhibition (IC50) in data set [1] of 0.8 µM. Moreover, the 90% effect level in data set [7] (IC90) was put at 1 µM.
The compound `Cc1cc(C(C#N)c2ccc(Cl)cc2)c(Cl)cc1NC(=O)c1cc(I)cc(I)c1O` (stereo not drawn) [S4105] registered a 50% effective concentration (EC50) in data set [2] of 0.3 µM. The CC50 at 24 h in data set [3] was approximately 50 µM. This compound also came in with an IC50 in data set [4] (No TX, without Triton X-100) of 0.3 µM. Further, the 50% inhibitory concentration (IC50) in data set [4] (setting [8]) was more than 100 µM. Also, the Vd in data set [6] worked out at 0.06 L/kg. For the same compound, the “absorption of intraperitoneal (IP) dose” value in data set [6] (ip) is given as “well absorbed”. The same compound came in with a concentration at 8 h in data set [6] (ip, 20 mg/kg) of 75 to 200 µM. In data set [6] (iv), the clearance was 2.4 mL/h/kg and the half-life was 21 h.
Turning to `NC(=O)c1cccc(-c2cc(Nc3ccc(OC(F)(F)F)cc3)ncn2)c1` [GNF2, reference compound], the “competition of AlphaScreen signal” value in data set [1] (GNF2-biotin on donor beads, His6-tagged DENV2 sE2 on acceptor beads) is on record as “competed away in a dose-dependent fashion”.
